Assay results from ChEMBL document CHEMBL1126479, “Refinement of a molecular model of angiotensin II (AII) employed in the discovery of potent nonpeptide antagonists” (Bioorg Med Chem Lett, 1993).

What was measured:
[1] = The compound was evaluated for the inhibition of [125I]- Angiotensin II (AII) binding to rat mesenteric membranes; type: cell membranes, Membrane
[2] = species: Oryctolagus cuniculus; assay: The compound was evaluated for the inhibition of angiotensin II (AII) induced rabbit aorta constriction; type: functional
[3] = system: Rattus norvegicus; assay: The compound was evaluated for the inhibition of Angiotensin II (AII) pressor response in conscious normotensive rats; type: functional; settings: read-out: ID50 (the source's name)

Row | IC50 [1] [nM] | Compound | Kb [2] [nM] | ED50 [3] [mg/kg]
1 | 8900 | CCCCc1ncc(/C=C\C(=O)O)n1Cc1ccccc1Cl | 810 | –
2 | – | CCCCc1ncc(/C=C(/Cc2ccsc2)C(=O)O)n1Cc1ccccc1Cl | 51 | 3.6
3 | – | CCCCc1nc(Cl)c(CC(=O)O)n1Cc1ccccc1Cl | 2700 | 30
4 | 2600 | CCCCc1ncc(/C=C(/Cc2ccccc2)C(=O)O)n1Cc1ccccc1Cl | 64 | 14
5 | – | CCCCc1ncc(/C=C(/Cc2ccsc2)C(=O)O)n1Cc1ccc(C(=O)O)cc1 | 0.21 | 0.08
6 | – | CCCCc1ncc(CC(=O)O)n1Cc1ccccc1Cl | – | 22.5
